Active and inactive are the calls of the source. No cut-off for these calls is given here.
Assays:
MCF7 [1] = test: Cytotoxicity against human MCF7 cells after 72 hrs by CCK8 assay; format: functional, cell-based
[2] = Cytotoxicity against human MDST8 cells after 72 hrs by CCK8 assay; format: functional, cell-based
MCF7 [3] = test: Cytotoxicity against human MCF7 cells at 1 x 10^-5 M after 72 hrs by CCK8 assay; format: functional; settings: for inhibition at 10 µM: MCF7, 72 h
[4] = (§1) Cytotoxicity against human MDST8 cells at 1 x 10^-5 M after 72 hrs by CCK8 assay; format: functional; settings: MDST8, 72 h
[5] = Cytotoxicity against human MDST8 cells at 1 x 10^-8 M after 72 hrs by CCK8 assay; format: functional; settings: MDST8, 72 h
MDST8 = test: as §1; format: functional
[6] = Homo sapiens, MCF7, 72 h, read-out: IC50
[7] = Homo sapiens, MDST8, 72 h, read-out: IC50

Structure (SMILES) | IC50 (MCF7 [1]; mcf7) | IC50 ([2]; mdst8) | also measured
CC(=O)O[C@@H]1O[C@H](C(=O)N2CCCC2)[C@@H](OC(C)=O)[C@H](OC(C)=O)[C@H]1OC(C)=O |  |  | IC50 (MCF7 [1]; [6]): 1 µM
CC(=O)O[C@@H]1O[C@H](C(=O)N[C@H](CO)Cc2ccccc2)[C@@H](OC(C)=O)[C@H](OC(C)=O)[C@H]1OC(C)=O | Not Active | Not Active | 
O=C(N[C@H](CO)c1ccccc1)[C@H]1O[C@](O)(CO)[C@@H](O)[C@@H]1O | Not Active | Not Active | 
C=CCOC(=O)[C@H]1O[C@@H](OC(C)=O)[C@H](OC(C)=O)[C@@H](OC(C)=O)[C@@H]1OC(C)=O |  |  | IC50 (MCF7 [1]; [6]): 4.5 µM
CC(=O)O[C@@H]1O[C@H](C(=O)N[C@H]2CN(Cc3ccccc3)C[C@@H]2NC(=O)[C@H]2O[C@@H](OC(C)=O)[C@H](OC(C)=O)[C@@H](OC(C)=O)[C@@H]2OC(C)=O)[C@@H](OC(C)=O)[C@H](OC(C)=O)[C@H]1OC(C)=O |  |  | IC50 [2, 7]: 0.1 µM
CC(=O)O[C@@H]1O[C@H](C(=O)NCCCO)[C@@H](OC(C)=O)[C@H](OC(C)=O)[C@H]1OC(C)=O | Active | Not Active | inhibition at 10 µM (MCF7 [3]): > 60%
O=C(Nc1ccncc1)[C@H]1O[C@@H](O)[C@H](O)[C@@H](O)[C@@H]1O |  |  | IC50 (MCF7 [1]; [6]): 0.19 µM
O=c1[nH]cc(F)c(=O)[nH]1 [FLUOROURACIL] |  |  | inhibition at 10 µM (MCF7 [3]): 60%; IC50 (MCF7 [1]; [6]): 0.52 µM; IC50 [2, 7]: 0.064 µM; inhibition at 10 µM [4]: 83%
CC(=O)O[C@@H]1O[C@H](C(=O)NCCO)[C@@H](OC(C)=O)[C@H](OC(C)=O)[C@H]1OC(C)=O | Active | Not Active | inhibition at 10 µM (MCF7 [3]): > 60%
CC(=O)O[C@@H]1O[C@H](C(=O)NCCCBr)[C@@H](OC(C)=O)[C@H](OC(C)=O)[C@H]1OC(C)=O | Not Active |  | IC50 [2, 7]: 0.1 µM; inhibition at 0.01 µM [5]: 50%; inhibition at 10 µM [4]: > 90%
O=C(N[C@H](CO)Cc1ccccc1)[C@H]1OC(O)(CO)[C@@H](O)[C@@H]1O (single isomer, unassigned) | Not Active | Not Active | 
CC(C)(C)[C@@H](CO)NC(=O)[C@H]1OC(O)(CO)[C@@H](O)[C@@H]1O (single isomer, unassigned) | Active |  | inhibition (MCF7 [3]): Active
CC(=O)O[C@@H]1O[C@H](C(=O)N[C@H](CO)c2ccccc2)[C@@H](OC(C)=O)[C@H](OC(C)=O)[C@H]1OC(C)=O | Not Active | Not Active | 
CC(=O)O[C@@H]1O[C@H](C(=O)N[C@H](CO)C(C)C)[C@@H](OC(C)=O)[C@H](OC(C)=O)[C@H]1OC(C)=O |  |  | inhibition (MDST8): Active
O=C(NCCCO)[C@H]1O[C@](O)(CO)[C@@H](O)[C@@H]1O | Active | Not Active | inhibition at 10 µM (MCF7 [3]): > 60%
CC(C)[C@@H](CO)NC(=O)[C@H]1OC(O)(CO)[C@@H](O)[C@@H]1O (single isomer, unassigned) |  | Active | inhibition at 10 µM [4]: 80%
O=C(NCCO)[C@H]1O[C@](O)(CO)[C@@H](O)[C@@H]1O | Active | Not Active | inhibition at 10 µM (MCF7 [3]): > 60%

Source: ChEMBL document CHEMBL3751790, “Novel hydroxyamides and amides containing D-glucopyranose or D-fructose units: Biological assays in MCF-7 and MDST8 cell lines” (Bioorg Med Chem Lett, 2016)
